Results taken from patent US11242331B2 (University of Florida Research Foundation, Incorporated, priority 2016, dated 2022).

Tests used:
[1] = system: parental HCT116 and HCT116 HIF-1α−/−HIF-2α−/− cells; assay: Cell viability assay in isogenic HCT116 lines (HIF-dependent anticancer activity); type: cell-based, human; conditions: parental HCT116 vs HCT116 HIF-1α/HIF-2α double knockout, 48 h, MTT
RAW264.7 cells = assay: RAW264.7 cell viability (MTT); type: cell-based, mouse; conditions: 24 h
Description: Human colorectal cancer cell lines HCT116, HCT116^HIF-1α−/−HIF-2α−/−, and HCT 116^WT KRAS were cultured in Dulbecco's Modified Eagle Medium (DMEM) supplemented with 10% fetal bovine serum and maintained in 5% CO2 at 37° C. The cells were seeded in a 96-well plate (10,000 cells/well) and treated with different concentrations of test compounds or solvent control (0.5% DMSO) after 24 h. Cell viability was measured 48 h following treatment with MTT dye using the manufacturer's protocol (Promega).
(§1) Mouse macrophage, RAW264.7 cells were cultured in Dulbecco's Modified Eagle Medium (DMEM) supplemented with 10% fetal bovine serum and maintained in 5% C02 at 37° C. Cells were seeded in 96-well plates (20,000 cells/well) and after 24 h pretreated for 1 hour with different concentrations of test compounds in triplicate or solvent control (0.5% DMSO) before adding LPS (1 μg/mL in PBS). Nitric oxide (NO) production in culture supernatant was assessed after 24 h following treatment by measuring nitrite concentration, an oxidative product of NO. Nitrite production was measured by mixing […] of culture supernatant with […] of Griess reagent (Promega), absorbance measured at 540 nm and NO % calculated against a calibration curve generated for fresh sodium nitrite standard. Cells were used for measuring viability (24 h) as above.

[2] = system: NO production in RAW264.7 cells; assay: Nitric oxide assay (Griess reagent); type: cell-based, mouse; conditions: RAW264.7 macrophage cells, LPS, 24 h
Description: (§2) Each biological screen was performed in three independent experiments at concentrations of 1, 10, 100 or 200 μM. All hit compounds identified in primary screens were then evaluated in follow-up assays to validate/confirm the initial screening results.
as §1

Staphylococcus aureus = assay: Bacterial growth inhibition assay, S. aureus; type: cell-based; conditions: 16-18 h, OD600
Description: as §2
Bacterial growth inhibition was determined by screening all yohimbine-derived compounds at 200 μM in 96-well plates. Briefly, 2 μL of a 20 mM DMSO stock solution (test compound) was added to 98 μL of media (tryptic soy broth with 0.5% glucose for S. aureus; LB for A. baumannii) before each well was treated with an additional 100 μL of inoculated media (giving ˜10^5 colony forming units per milliliter) prepared from a fresh log-phase culture (OD600 of 0.8 to 1.0). The inoculated 96-well plates were then covered and placed in a humidifying chamber and allowed to incubate at 37° C. for 16-18 hours. Bacterial growth was then determined using a spectrophotometer plate reader (OD600) to quantify turbidity (growth) in each treated and untreated well of the 96-well plates. Turbidity for treated wells were compared to a 1% v/v DMSO vehicle and recorded in the screening heat map. All compounds were tested in three independent experiments.

[3] = system: endogenous Nrf2 target gene, NQO1; assay: RT-qPCR validation of ARE inhibition in MDA-MB-231-ARE-Luc cells; type: cell-based, human; conditions: 24 h, relative to 0.5% DMSO
Description: (§3) The library compounds were then assessed for the potential to modulate the activity of another key transcription factor, NF-E2-related factor 2 (Nrf2), which acts on the antioxidant response element (ARE) in the promoter region upstream of antioxidant and phase II detoxification enzymes. Activators of the Nrf2-ARE pathway have potential as cancer preventive agents because of their ability to increase antioxidant status of the cell and protect from oxidative damage that could lead to cancer. Inhibitors in turn may increase the susceptibility of cancer cells to chemotherapeutic agents and overcome drug resistance since Nrf2 is commonly activated in cancer.^44 To screen for Nrf2 inhibitors, MDA-MB-231 breast cancer cells (a model for invasive, triple negative breast cancer) stably transfected with the ARE-luciferase reporter were used, where the promoter region is derived from the human NQO1 gene.^45 As a control, cell viability was monitored to ensure the identification of false positives in the reporter gene assay that are a result of concomitant reduced cell viability.
The antioxidant response element (ARE) expression induction assay with LNCaP cells was performed as previously described.^6 The ARE expression inhibition assay was performed with MDA-MB-231-ARE-Luc cells that stably express the ARE reporter construct.7 MDA-MB-231-ARE-Luc cells were seeded in 96 well plates at 1.5×10^4 cells/well in DMEM medium (GIBCO) containing 10% FCS and 1% antibiotic-antimycotic (GIBCO), and allowed to attach overnight. Test compounds were screened in triplicate at three concentrations (100, 10 and 1 μM) and ARE expression was quantified on the EnVision plate reader (Perkin-Elmer) using the BriteLite plus luciferase reporter assay system (Perkin-Elmer) after 24 h exposure in a humidified incubator at 37° C. with 5% CO2. […]
In order to validate the ARE modulatory effects of compounds from the primary screen, the expression of the target Nrf2 target gene, Ngo1, was quantified by RT-qPCR. […]

endogenous NQO1 = assay: RT-qPCR validation of ARE activation in LNCaP cells; type: cell-based, human; conditions: for levels of endogenous NQO1 (ARE activation): 24 h, RT-qPCR, relative to 0.5% DMSO; for potency compared with positive control sulforaphane: NQO1 RT-qPCR, sulforaphane 10 μM
Description: (§4) As a control, LNCaP viability was monitored in parallel (FIG. 11E).
(§5) The antioxidant response element (ARE) expression induction assay with LNCaP cells was performed as previously described.^6 The ARE expression inhibition assay was performed with MDA-MB-231-ARE-Luc cells that stably express the ARE reporter construct.7 MDA-MB-231-ARE-Luc cells were seeded in 96 well plates at 1.5×10^4 cells/well in DMEM medium (GIBCO) containing 10% FCS and 1% antibiotic-antimycotic (GIBCO), and allowed to attach overnight. Test compounds were screened in triplicate at three concentrations (100, 10 and 1 μM) and ARE expression was quantified on the EnVision plate reader (Perkin-Elmer) using the BriteLite plus luciferase reporter assay system (Perkin-Elmer) after 24 h exposure in a humidified incubator at 37° C. with 5% CO2. In both cell line assays the luciferase expression for compound-treated wells was expressed relative the 0.5% DMSO carrier solvent control. A parallel viability assay was performed with the Cell Titer 96 Non-radioactive Cell Proliferation Assay (Promega) and the data expressed in the same manner as above. Compounds that inhibited ARE expression 20% more than viability, or induced ARE expression more than three-fold were re-tested in a seven-point, two-fold serial dilution dose-response assay (100-1.56 μM).
In order to validate the ARE modulatory effects of compounds from the primary screen, the expression of the target Nrf2 target gene, Ngo1, was quantified by RT-qPCR. LNCaP and MDA-MB-231-ARE-Luc cells were seeded in 6 well plates at 5×10^5 and 7×10^5 cells per well, in EMEM and DMEM media containing 10% FCS and 1% antibiotic-antimycotic (GIBCO) respectively. Cells were allowed to attach overnight before the addition of test compounds. After 24 h exposure in a humidified incubator at 37° C. with 5% CO2, RNA was isolated using the RNeasy kit (Qiagen) and quantified using a NanoDrop spectrophotometer (Thermo Fisher Scientific). cDNA was synthesized from 2 μg of RNA using Oligo(dT)12-18 (Life Technologies) primer and SuperScript II (Thermo Fisher Scientific) on the Mastercycler Gradient PCR machine (Eppendorf) for 1 h at 42° C. following a 10 min denaturation at 65° C. Gene expression was quantified on the 7300 Real Time PCR machine (Applied Biosystems) using TaqMan Gene Expression Master Mix (Thermo Fisher Scientific) and probes for the target gene Nqo1 (Hs02512143_s1, Thermo Fisher Scientific) and reference gene ActB (Hs99999903_m1, Thermo Fisher Scientific). Real time PCR was performed with the following thermal cycle: 1. 50° C. for 2 min; 2. 95° C. for 10 min; 3. 40 cycles of 95° C. for 15 sec followed by 60° C. for 1 min.

[4] = system: Nrf2-ARE pathway (ARE-luciferase reporter); assay: ARE luciferase assay in MDA-MB-231-ARE-Luc cells (inhibition); type: cell-based, human; conditions: 24 h, screened at 100, 10 and 1 μM
Description: as §2
as §3, with “viability. […]” for “viability.”

[5] = system: Nrf2-ARE pathway (ARE-luciferase reporter); assay: ARE luciferase assay in LNCaP cells (activation); type: cell-based, human; conditions: 24 h, screened at 100, 10 and 1 μM
Description: as §2, §4
as §5, with “Compounds that inhibited ARE expression 20% more than viability, or induced ARE expression more than three-fold were re-tested in a seven-point, two-fold serial dilution dose-response assay (100-1.56 μM).” left out

COC(=O)[C@@H]1[C@H]2C[C@@H]3N(CC[C@@]34C(=O)N(Cc3cccc(OC)c3)c3ccccc34)C[C@@H]2CC[C@@H]1OCc1cccc(OC)c1 [Y7g]
differential (HIF-dependent) antiproliferative activity [1]: most selective antiproliferative agent | cell viability (RAW264.7 cells): almost unaffected | inhibition of nitric oxide (NO) production [2]: most selective anti-inflammatory activity

COC(=O)[C@@H]1[C@H]2C[C@H](OCc3ccc(Br)cc3)c3[nH]c4ccccc4c3CCN(C#N)C[C@@H]2CC[C@@H]1O [Y6q]
inhibition at 200 µM (Staphylococcus aureus): ~20% | transcription of endogenous NQO1 [3]: downregulated NQO1 transcription

OC[C@@H]1[C@H]2C[C@@H]3OCc4ccccc4-n4c3c(c3ccccc34)CCNC[C@@H]2CC[C@@H]1O [Y5b]
levels of endogenous NQO1 (ARE activation) (endogenous NQO1): active at lower concentrations | potency compared with positive control sulforaphane (endogenous NQO1): only slightly less potent than the positive control

COC(=O)[C@@H]1[C@H]2C[C@H]3c4[nH]c5ccccc5c4CCN3C[C@@H]2CC[C@@H]1O [yohimbine 1, yohimbine]
ARE inhibition (luciferase reporter) [4]: does not possess any of these activities | inhibition of nitric oxide (NO) production [2]: does not possess any of these activities | ARE activation (luciferase reporter) [5]: does not possess any of these activities

COC(=O)[C@@H]1[C@H]2C[C@@H]3N(CC[C@@]34C(=O)N(c3ccc(Oc5ccccc5)cc3)c3ccccc34)C[C@@H]2CC[C@@H]1O [Y3e]
transcription of endogenous NQO1 [3]: downregulated NQO1 transcription

CC(=O)N1CCc2c([nH]c3ccccc23)[C@H](OCc2ccccc2)C[C@H]2[C@@H](CC[C@H](O)[C@@H]2CO)C1 [Y6u]
levels of endogenous NQO1 (ARE activation) (endogenous NQO1): active at lower concentrations | potency compared with positive control sulforaphane (endogenous NQO1): only slightly less potent than the positive control

COC(=O)[C@@H]1[C@H]2C[C@@H](c3[nH]c4ccccc4c3CCn3cc(-c4cccc(Cl)c4)nn3)N(C#N)C[C@@H]2CC[C@@H]1O [Y1f]
inhibition at 200 µM (Staphylococcus aureus): ~20% | transcription of endogenous NQO1 [3]: downregulated NQO1 transcription
